Read-outs that look alike come from different tables or passages of the source. Each block holds one compound with its values, some of them ahead of it.
Legend:
[1] = Microsomal stability (liver microsomal assay, mixed cofactors); predicted hepatic clearance; assay type: in vitro ADME; details: liver microsomes 1.0 mg protein/mL (+UDPGA +NADPH), 1 μM analyte, 37° C.; scaled with human liver weight and hepatic blood flow 1.3 L/hr/kg
In short: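 Compound at 1 μM with human or rat pooled liver microsomes, alamethicin-treated, pH 7.4 phosphate, NADPH-regenerating plus UDPGA cofactors, 37° C, sampled 0–70 min. Parent/internal standard ratio by RapidFire QToF MS; half-life from initial log-linear decay, scaled to intrinsic and predicted hepatic clearance and hepatic extraction.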

GLP-1R = GLP-1R (Homo sapiens (Human), UniProt P43220); test: GLP-1R activation: cAMP increase in CHO cells stably expressing GLP-1R; assay type: cell-based; details: 10 point dose response, 30 minutes incubation at 37° C.
In short: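 CHO cells stably expressing GLP-1R were incubated 1 h at 37 °C in medium with 1% BSA, then exposed to compound in a 10-point dose response for 30 min at 37 °C. cAMP rise was detected by HTRF (Gs Dynamic kit). EC50 came from a sigmoidal fit of response against log agonist concentration.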

GLP-1R, sequence (P43220 24-463): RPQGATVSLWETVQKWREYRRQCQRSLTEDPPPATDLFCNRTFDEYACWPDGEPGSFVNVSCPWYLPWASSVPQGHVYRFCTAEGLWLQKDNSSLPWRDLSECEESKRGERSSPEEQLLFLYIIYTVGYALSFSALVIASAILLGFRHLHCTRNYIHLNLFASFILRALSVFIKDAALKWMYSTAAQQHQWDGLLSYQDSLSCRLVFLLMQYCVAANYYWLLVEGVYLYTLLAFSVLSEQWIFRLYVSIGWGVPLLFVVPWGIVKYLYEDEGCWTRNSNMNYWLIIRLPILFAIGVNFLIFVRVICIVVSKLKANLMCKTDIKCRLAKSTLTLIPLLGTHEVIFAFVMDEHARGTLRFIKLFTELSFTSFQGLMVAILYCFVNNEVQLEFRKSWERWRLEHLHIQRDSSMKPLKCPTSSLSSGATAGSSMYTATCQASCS

SMILES: CC1(c2ccc(Cl)cc2F)Oc2cccc(-c3cc(F)c(Cc4nc5ccc(C(=O)O)cc5n4C[C@@H]4CCO4)c(F)c3F)c2O1 (stereo partly drawn) [Example 20, 2-(4-(2-(4-chloro-2-fluorophenyl)-2-methylbenzo[d][1, 3]dioxol-4-yl)-2,3,6-trifluorobenzyl)-1-(((S)-oxetan-2-yl)methyl)-1H-benzo[d]imidazole-6-carboxylic acid]
- Predicted Hepatic Clearance (Pred. Cl.) [1]: 2.5 mL/min/kg
- EC50 (GLP-1R; cAMP increase, read-out: EC50): 0.089 nM

SMILES: COCCn1c(Cc2c(F)cc(-c3cccc4c3OC(C)(c3ccc(Cl)cc3F)O4)cc2F)nc2ccc(C(=O)NS(=O)(=O)C3CC3)cc21 (racemic) [Example 3, 2-(4-(2-(4-chloro-2-fluorophenyl)-2-methylbenzo[d][1, 3]dioxol-4-yl)-2,6-difluorobenzyl)-N-(cyclopropylsulfonyl)-1-(2-methoxyethyl)-1H-benzo[d]imidazole-6-carboxamide]
- Predicted Hepatic Clearance (Pred. Cl.) [1]: 2 mL/min/kg
- EC50 (GLP-1R; cAMP increase, read-out: EC50): 78 nM

SMILES: CC1(c2ccc(Cl)cc2F)Oc2cccc(-c3cc(F)c(Cc4nc5ccc(C(=O)O)cc5n4C[C@@H]4CCO4)c(F)c3)c2O1 (single isomer, unassigned) [Example 48]
- Predicted Hepatic Clearance (Pred. Cl.) [1]: 2 mL/min/kg
- EC50 (GLP-1R; EC50, cAMP increase): 1.2 nM

SMILES: COCCn1c(Cc2ccc(-c3cccc4c3OC(C)(c3ccc(Cl)cc3F)O4)s2)nc2ccc(C(=O)O)cc21 (stereo not drawn) [Example 8, 2-((5-(2-(4-chloro-2-fluorophenyl)-2-methylbenzo[d][1, 3]dioxol-4-yl)thiophen-2-yl)methyl)-1-(2-methoxyethyl)-1H-benzo[d]imidazole-6-carboxylic acid]
- Predicted Hepatic Clearance (Pred. Cl.) [1]: 7.83 mL/min/kg
- EC50 (GLP-1R; cAMP increase, read-out: EC50): 78 nM

Next, values leading:

- Predicted Hepatic Clearance (Pred. Cl.) [1]: 2.5 mL/min/kg
- EC50 (GLP-1R; cAMP increase, read-out: EC50): 4.5 nM
SMILES: CC1(c2ccc(Cl)cn2)Oc2cccc(-c3cnc(Cc4nc5ccc(C(=O)O)cc5n4C[C@@H]4CCO4)c(F)c3)c2O1 (stereo partly drawn) [Example 14, 2-((5-(2-(5-chloropyridin-2-yl)-2-methylbenzo[d][1, 3]dioxol-4-yl)-3-fluoropyridin-2-yl)methyl)-1-(((S)-oxetan-2-yl)methyl)-1H-benzo[d]imidazole-6-carboxylic acid]

- Predicted Hepatic Clearance (Pred. Cl.) [1]: 2.5 mL/min/kg
- EC50 (GLP-1R; cAMP increase, read-out: EC50): 8.6 nM
SMILES: CC1(c2ccc(Cl)cc2F)Oc2cccc(-c3cc(F)c(Cc4nc5c(F)cc(C(=O)O)cc5n4CC4(CC(N)=O)CC4)c(F)c3)c2O1 (stereo not drawn) [Example 9, 1-((1-(2-amino-2-oxoethyl)cyclopro-pyl)methyl)-2-(4-(2-(4-chloro-2-fluorophenyl)-2-methylbenzo[d][1, 3]dioxol-4-yl)-2,6-difluorobenzyl)-4-fluoro-1H-benzo[d]imidazole-6-carboxylic acid]

- Predicted Hepatic Clearance (Pred. Cl.) [1]: 2.83 mL/min/kg
- EC50 (GLP-1R; cAMP increase, read-out: EC50): 438 nM
SMILES: N#Cc1ccc(C2Oc3cccc(-c4cc(F)c(Cc5nc6ccc(C(=O)O)cc6n5C[C@@H]5CCO5)c(F)c4)c3O2)c(F)c1 (single isomer, unassigned) [Example 41]

- Predicted Hepatic Clearance (Pred. Cl.) [1]: 8.67 mL/min/kg
- EC50 (GLP-1R; cAMP increase, read-out: EC50): 242 nM
SMILES: COCCn1c(Cc2ccc(-c3cccc4c3OC(c3ccccc3)O4)cc2F)nc2ccc(C(=O)O)cc21 (single isomer, unassigned) [Example 36, 2-(2-fluoro-4-(2-phenylbenzo[d][1, 3]dioxol-4-yl)benzyl)-1-(2-methoxyethyl)-1H-benzo[d]imidazole-6-carboxylic acid]

- Predicted Hepatic Clearance (Pred. Cl.) [1]: 4.67 mL/min/kg
- EC50 (GLP-1R; cAMP increase, read-out: EC50): 0.076 nM
SMILES: CC1(c2ccc(Cl)cn2)Oc2cccc(-c3cc(F)c(Cc4nc5ccc(C(=O)O)cc5n4C[C@@H]4CCO4)cc3F)c2O1 (stereo partly drawn) [Example 29, 2-(4-(2-(5-chloropyridin-2-yl)-2-methylbenzo[d][1, 3]dioxol-4-yl)-2,5-difluorobenzyl)-1-(((S)-oxetan-2-yl)methyl)-1H-benzo[d]imidazole-6-carboxylic acid]
